#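 Test compounds were applied to cells in 96-well plates for 48 hours at 5 doses. Abbreviation: GI50, concentration required for 50% inhibition of growth.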 Activity calls are given as the source filed them. Rule as the data show it: active = GI50 up to about 1.1 µM and inactive = higher.
# Assays:
# Assay in all cases: DTP human tumour cell line panel, 48 h
# BT-549 = system: BT-549
# MCF7 = system: MCF7
# HCT-15 = system: HCT-15
# HCT-116 = system: HCT-116
# U-251 = system: U-251
# NCI-H460 = system: NCI-H460
# PC-3 = system: PC-3
# Hs-578T = system: Hs-578T
# 786-0 = system: 786-0
# M14 = system: M14
# MDA-MB-435 = system: MDA-MB-435
# SW-620 = system: SW-620
# UO-31 = system: UO-31
# HOP-62 = system: HOP-62
# A498 = system: A498
# SF-268 = system: SF-268
# NCI-H23 = system: NCI-H23
# SNB-75 = system: SNB-75
# SK-MEL-2 = system: SK-MEL-2
# HCC 2998 = system: HCC 2998
SMILES,GI50 (BT-549),GI50 (MCF7),GI50 (HCT-15),GI50 (HCT-116),GI50 (U-251),GI50 (NCI-H460),GI50 (PC-3),GI50 (Hs-578T),GI50 (786-0),GI50 (M14),GI50 (MDA-MB-435),GI50 (SW-620),GI50 (UO-31),GI50 (HOP-62),GI50 (A498),GI50 (SF-268),GI50 (NCI-H23),GI50 (SNB-75),GI50 (SK-MEL-2),GI50 (HCC 2998)
CC(C)c1ccc(/C(C(=O)O)=C(\O)C(=O)O)cc1,> 100 µM (inactive),> 100 µM (inactive),> 100 µM,> 100 µM (inactive),> 100 µM (inactive),> 100 µM (inactive),> 100 µM (inactive),> 100 µM (inactive),> 100 µM (inactive),> 100 µM (inactive),> 100 µM (inactive),> 100 µM (inactive),> 100 µM (inactive),> 100 µM (inactive),> 100 µM (inactive),> 100 µM (inactive),> 100 µM (inactive),> 100 µM (inactive),> 100 µM (inactive),
CC(=O)Nc1ccc(NCC(=O)Nn2cnc3ccc(S(=O)(=O)Nc4ccc(NC(C)=O)cc4)cc3c2=O)cc1,> 100 µM (inactive),> 100 µM (inactive),> 100 µM,> 100 µM (inactive),> 100 µM (inactive),> 100 µM (inactive),> 100 µM (inactive),> 100 µM (inactive),> 100 µM (inactive),> 100 µM (inactive),> 100 µM (inactive),> 100 µM (inactive),> 100 µM (inactive),> 100 µM (inactive),,> 100 µM (inactive),> 100 µM (inactive),> 100 µM (inactive),> 100 µM (inactive),> 100 µM (inactive)
CC(=O)c1sc2c(c1O)c(=O)n(-c1ccccc1)c(=S)n2-c1ccccc1,95.3 µM (inactive),> 100 µM (inactive),> 100 µM,,> 100 µM (inactive),> 100 µM (inactive),,> 100 µM (inactive),> 100 µM (inactive),> 100 µM (inactive),> 100 µM (inactive),> 100 µM (inactive),> 100 µM (inactive),,,> 100 µM (inactive),> 100 µM (inactive),58.7 µM (inactive),> 100 µM (inactive),> 100 µM (inactive)
Clc1cc(N/N=C(/c2ccccc2)c2ncccn2)ncn1,38.5 µM (inactive),14.8 µM (inactive),17.9 µM,7.26 µM (inactive),31.8 µM (inactive),19.3 µM (inactive),32.7 µM (inactive),24.5 µM (inactive),21.7 µM (inactive),29 µM (inactive),48.3 µM (inactive),7.18 µM (inactive),19.5 µM (inactive),26.8 µM (inactive),,34 µM (inactive),21.4 µM (inactive),26.1 µM (inactive),32.7 µM (inactive),70.3 µM (inactive)
